Assay results as given in US5935829A, “Mutation assays involving blood cells that metabolize toxic substances” (priority 1992, dated 1999).
Where two headings read alike, the source gives them in different places.

Tests used:
[1] = test system: AHH-1 cells
[2] = in vitro; type: cell-based, human; conditions: human, g6-a5 cells, G6-A5 clone, read-out: Relative Survival
Excerpt: (§1) Following the benzo(ghi)perylene selection and after plating in microtitre plates, colonies were isolated and analyzed for MFO activity and PE. […] Several of these subclones were used to detect the mutagenic activity of benzo(a)pyrene, a chemical known to require oxidative metabolism for mutagenicity.

[3] = test system: G6-A5 cells; assay: in vitro; type: cell-based, human; conditions: several subclones, exposed directly
Excerpt: as §1

[4] = test system: AHH activity of 6-TG resistant AHH-1 clones; assay: AHH activity induced by BaP in AHH-1 cells resistant to 6-TG; type: cell-based, human; conditions: 10 μM BaP, 24 hours
Method: 3-hydroxy BaP per 10^6 cells per minute. The quantity of 3-hydroxy BaP was measured by fluorescent intensity activated by a light wavelength of 396 nm and measured at 522 nm using a spectrofluorimeter (Farrand Model Mk-1, Valhalla, N.Y.). This could be induced to about 0.3 pmole of 3-hydroxy BaP per 10^6 cells per minute.
6-TG resistant clones were characterized for AHH activity by measuring the rate of production of 3-OH benzopyrene, a fluorescent metabolite of BaP which is created by AHH activity. […].

[5] = in vitro; conditions: human, ahh-1 cells, RELATIVE SURVIVAL; for viability at 48 h, 10 µM: 10 μM × 48 hours; for viability at 48 h, 20 µM: 20 μM × 48 hours
[6] = test system: AHH activity of AHH-1 cells; type: cell-based, human
Method: The quantity of 3-hydroxy BaP was measured by fluorescent intensity activated by a light wavelength of 396 nm and measured at 522 nm using a spectrofluorimeter (Farrand Model Mk-1, Valhalla, N.Y.).
After growth of the cells in culture medium with gentamycin and kanamycin, the cells were plated in microtiter plates at a density of about 0.2 cells per well. Colonies were isolated and characterized for BaP-induced growth inhibition. A total of 47 colonies were isolated and contacted with 40 uM BaP. In its normal state, BaP is not highly cytotoxic or mutagenic; however, if metabolized by oxidative activity into one or more epoxides or phenols, the metabolites tend to be toxic and mutagenic.
6-TG resistant clones were characterized for AHH activity by measuring the rate of production of 3-OH benzopyrene, a fluorescent metabolite of BaP which is created by AHH activity.

[7] = test system: human cells; conditions: literature ref. 15; cited from earlier work
[8] = 0.3 μM × 24 hours, induction BP

c1ccc2c(c1)cc1ccc3cccc4ccc2c1c34 [BaP, benzo(a)pyrene]
MUTANT FRACTION × 10^6, MEAN ± STD.DEV. [1, 8]: 3.4 ± 0.5 × 10^6 | MUTANT FRACTION × 10^6, MEAN ± STD.DEV. ([1]; 1 μM × 24 hours, induction BP): 4.9 ± 0.9 × 10^6 | MUTANT FRACTION × 10^6, MEAN ± STD.DEV. ([1]; 3 μM × 24 hours, induction BP): 6.1 ± 1 × 10^6 | MUTANT FRACTION × 10^6, MEAN ± STD.DEV. ([1]; 10 μM × 24 hours, induction BP): 12.7 ± 1.5 × 10^6 | MUTANT FRACTION × 10^6, MEAN ± STD.DEV. ([1]; 30 μM × 24 hours, induction BP): 18.2 ± 2.1 × 10^6 | viability at 24 h ([2]; 0.1 μg/ml): 37% | viability at 24 h ([2]; 0.2 μg/ml, 24 hour treatment): 41% | mutation of G6-series subclones to a statistically significant degree [3]: mutated to a statistically significant degree | AHH Activity Induced by B(α)P ([4]; clone BP-1): 1.64 pmole 3OHBP/10^6 cells/minute | AHH Activity Induced by B(α)P ([4]; clone BP-2): 2.36 pmole 3OHBP/10^6 cells/minute | AHH Activity Induced by B(α)P ([4]; clone BP-3): 1.88 pmole 3OHBP/10^6 cells/minute | AHH Activity Induced by B(α)P ([4]; clone BP-4): 2.76 pmole 3OHBP/10^6 cells/minute | AHH Activity Induced by B(α)P ([4]; clone BP-5): 0.72 pmole 3OHBP/10^6 cells/minute | AHH Activity Induced by B(α)P ([4]; clone BP-6): 1.88 pmole 3OHBP/10^6 cells/minute | AHH Activity Induced by B(α)P ([4]; clone BP-7): 1.84 pmole 3OHBP/10^6 cells/minute | AHH Activity Induced by B(α)P ([4]; mean TG^R clones): 1.87 pmole 3OHBP/10^6 cells/minute | viability at 24 h, 0.3 µM [5, 8]: 87% | viability at 24 h, 1 µM ([5]; 1 μM × 24 hours, induction BP): 102% | viability at 24 h, 3 µM ([5]; 3 μM × 24 hours, induction BP): 74% | viability at 24 h, 10 µM ([5]; 10 μM × 24 hours, induction BP): 82% | viability at 24 h, 30 µM ([5]; 30 μM × 24 hours, induction BP): 75% | AHH Activity Induced by B(α)P [6]: 2.04 pmole 3OHBP/10^6 cells/minute | induction of AHH activity [6]: inducers

c1cc2cccc3c4cccc5cccc(c(c1)c23)c54 [Per, perylene]
MUTANT FRACTION × 10^6, MEAN ± STD.DEV. ([1]; 10 μM × 48 hours, induction BNF): 2.7 ± 0.6 × 10^6 | MUTANT FRACTION × 10^6, MEAN ± STD.DEV. ([1]; 10 μM × 48 hours, induction none): 3.2 ± 0.75 × 10^6 | MUTANT FRACTION × 10^6, MEAN ± STD.DEV. ([1]; 20 μM × 48 hours, induction BNF): 2.7 ± 0.6 × 10^6 | MUTANT FRACTION × 10^6, MEAN ± STD.DEV. ([1]; 20 μM × 48 hours, induction none): 1.9 ± 0.5 × 10^6 | mutagenicity for human cells [7]: not a mutagen for human cells | viability at 48 h, 10 µM ([5]; induction BNF): 89% | viability at 48 h, 10 µM ([5]; induction none): 93% | viability at 48 h, 20 µM ([5]; induction BNF): 89% | viability at 48 h, 20 µM ([5]; induction none): 95%
